Peptide text beside a SMILES is read from it.
How the values were obtained:
[1] = biological target: T1, Integrin alpha-V/beta-3 (Homo sapiens, UniProt P05106+P06756); assay: Inhibition of vitronectin binding to human alphaVbeta3 integrin after 2 hrs by ELISA; assay type: protein-complex assay
Target sequence in this assay (P05106 27-788 limits assumed): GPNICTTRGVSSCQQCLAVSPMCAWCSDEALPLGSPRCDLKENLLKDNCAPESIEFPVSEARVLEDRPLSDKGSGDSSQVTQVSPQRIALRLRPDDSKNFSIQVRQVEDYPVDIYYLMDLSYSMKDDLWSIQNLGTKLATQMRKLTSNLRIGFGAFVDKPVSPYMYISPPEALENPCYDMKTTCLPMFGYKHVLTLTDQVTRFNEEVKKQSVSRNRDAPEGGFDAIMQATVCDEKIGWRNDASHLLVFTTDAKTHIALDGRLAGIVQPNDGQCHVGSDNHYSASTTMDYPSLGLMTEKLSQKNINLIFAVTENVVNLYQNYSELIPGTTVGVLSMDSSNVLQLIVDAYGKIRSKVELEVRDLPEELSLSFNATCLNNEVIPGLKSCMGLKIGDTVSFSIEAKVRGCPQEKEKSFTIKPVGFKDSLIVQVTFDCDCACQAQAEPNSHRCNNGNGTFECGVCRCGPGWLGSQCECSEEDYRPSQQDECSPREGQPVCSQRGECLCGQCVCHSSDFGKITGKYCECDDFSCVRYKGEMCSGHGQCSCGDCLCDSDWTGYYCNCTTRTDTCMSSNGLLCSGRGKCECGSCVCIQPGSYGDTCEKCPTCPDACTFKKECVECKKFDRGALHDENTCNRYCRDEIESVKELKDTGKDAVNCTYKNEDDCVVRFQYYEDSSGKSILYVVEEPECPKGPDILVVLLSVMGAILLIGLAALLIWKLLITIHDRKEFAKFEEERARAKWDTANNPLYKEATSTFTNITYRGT
Target sequence in this assay (P06756 31-889 limits assumed): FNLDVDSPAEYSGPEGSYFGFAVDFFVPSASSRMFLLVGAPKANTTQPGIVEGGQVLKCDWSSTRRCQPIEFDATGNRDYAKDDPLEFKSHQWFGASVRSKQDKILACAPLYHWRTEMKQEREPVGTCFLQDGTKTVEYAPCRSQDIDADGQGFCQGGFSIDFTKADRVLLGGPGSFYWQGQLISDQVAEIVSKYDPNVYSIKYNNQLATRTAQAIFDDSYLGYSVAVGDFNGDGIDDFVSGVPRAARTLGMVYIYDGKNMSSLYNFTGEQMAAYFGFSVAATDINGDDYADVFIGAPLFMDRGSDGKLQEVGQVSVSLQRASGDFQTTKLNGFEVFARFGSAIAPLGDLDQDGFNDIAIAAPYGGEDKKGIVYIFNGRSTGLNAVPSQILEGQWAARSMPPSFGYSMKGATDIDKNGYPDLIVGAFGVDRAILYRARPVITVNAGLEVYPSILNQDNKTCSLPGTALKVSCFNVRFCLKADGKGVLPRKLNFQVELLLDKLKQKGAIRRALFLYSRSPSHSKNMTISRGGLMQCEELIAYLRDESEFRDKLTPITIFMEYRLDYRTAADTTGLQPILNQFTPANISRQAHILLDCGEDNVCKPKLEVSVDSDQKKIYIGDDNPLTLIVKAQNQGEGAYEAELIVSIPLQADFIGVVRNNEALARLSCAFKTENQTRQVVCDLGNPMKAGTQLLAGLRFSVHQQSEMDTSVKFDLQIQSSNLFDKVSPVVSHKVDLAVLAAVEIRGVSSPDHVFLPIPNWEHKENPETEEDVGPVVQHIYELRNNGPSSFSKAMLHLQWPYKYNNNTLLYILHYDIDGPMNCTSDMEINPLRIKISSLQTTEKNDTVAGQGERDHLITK
Target sequence in this assay (P06756 891-1048 limits assumed): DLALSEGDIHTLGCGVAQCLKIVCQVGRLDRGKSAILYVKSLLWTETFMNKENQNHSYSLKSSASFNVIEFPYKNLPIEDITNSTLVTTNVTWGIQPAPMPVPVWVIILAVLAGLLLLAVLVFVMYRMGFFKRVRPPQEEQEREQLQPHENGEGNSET

[2] = biological target: Integrin alpha-IIb/beta-3 (Homo sapiens, UniProt P05106+P08514); assay: Inhibition of fibrinogen binding to human alpha2b/beta3 integrin after 1 hr by ELISA; assay type: protein-complex assay
[3] = biological target: Integrin alpha-V/beta-5 (Homo sapiens, UniProt P06756+P18084); assay: Inhibition of vitronectin binding to human alphaVbeta5 integrin after 1 hr by ELISA; assay type: protein-complex assay
[4] = biological target: T1, Integrin alpha-V/beta-3; assay: Inhibition of alphavbeta3 integrin-mediated capillary tube formation in HUVEC after 16 hrs by matrigel assay; assay type: protein-complex assay
[5] = biological target: T1, Integrin alpha-V/beta-3; assay: Inhibition of alphavbeta3 integrin-mediated cell adhesion in HUVEC after 15 mins by matrigel assay; assay type: protein-complex assay
[6] = biological target: Integrin alpha-5/beta-1 (Homo sapiens, UniProt P05556+P08648); assay: Inhibition of fibronectin binding to human alpha5beta1 integrin after 1 hr by ELISA; assay type: protein-complex assay
[7] = species on record: Homo sapiens; assay: Selectivity ratio IC50 for human alpha2b/beta3 integrin to IC50 for human alphaVbeta3 integrin

Sequence of Integrin alpha-V/beta-5 (P06756 31-889 limits assumed): as the sequence (P06756 31-889 limits assumed) above
Sequence of Integrin alpha-V/beta-5 (P06756 891-1048 limits assumed): as the sequence (P06756 891-1048 limits assumed) above
Sequence of Integrin alpha-V/beta-5 (P18084 24-799 limits assumed): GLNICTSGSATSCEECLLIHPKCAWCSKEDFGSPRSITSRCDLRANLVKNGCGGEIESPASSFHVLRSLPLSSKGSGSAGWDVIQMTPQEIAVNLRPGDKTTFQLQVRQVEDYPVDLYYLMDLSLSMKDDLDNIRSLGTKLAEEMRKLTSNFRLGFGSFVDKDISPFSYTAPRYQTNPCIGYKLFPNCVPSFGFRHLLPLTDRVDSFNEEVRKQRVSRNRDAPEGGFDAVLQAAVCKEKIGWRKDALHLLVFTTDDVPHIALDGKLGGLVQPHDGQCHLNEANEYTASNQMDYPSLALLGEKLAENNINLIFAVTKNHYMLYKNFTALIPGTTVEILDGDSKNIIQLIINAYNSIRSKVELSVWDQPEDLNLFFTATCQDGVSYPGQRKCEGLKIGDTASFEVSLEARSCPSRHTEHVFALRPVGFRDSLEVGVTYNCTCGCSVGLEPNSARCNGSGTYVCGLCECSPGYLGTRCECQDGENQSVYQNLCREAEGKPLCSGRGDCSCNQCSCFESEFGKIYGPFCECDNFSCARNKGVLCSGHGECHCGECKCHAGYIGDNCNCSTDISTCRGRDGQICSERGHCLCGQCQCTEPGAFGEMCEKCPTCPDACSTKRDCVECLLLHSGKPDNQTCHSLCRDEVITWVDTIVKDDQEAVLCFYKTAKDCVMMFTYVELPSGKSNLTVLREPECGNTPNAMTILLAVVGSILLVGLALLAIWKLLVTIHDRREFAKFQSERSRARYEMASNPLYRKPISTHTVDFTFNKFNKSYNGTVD
Sequence of Integrin alpha-IIb/beta-3 (P05106 27-788 limits assumed): as the sequence (P05106 27-788 limits assumed) above
Sequence of Integrin alpha-IIb/beta-3 (P08514 32-887 limits assumed): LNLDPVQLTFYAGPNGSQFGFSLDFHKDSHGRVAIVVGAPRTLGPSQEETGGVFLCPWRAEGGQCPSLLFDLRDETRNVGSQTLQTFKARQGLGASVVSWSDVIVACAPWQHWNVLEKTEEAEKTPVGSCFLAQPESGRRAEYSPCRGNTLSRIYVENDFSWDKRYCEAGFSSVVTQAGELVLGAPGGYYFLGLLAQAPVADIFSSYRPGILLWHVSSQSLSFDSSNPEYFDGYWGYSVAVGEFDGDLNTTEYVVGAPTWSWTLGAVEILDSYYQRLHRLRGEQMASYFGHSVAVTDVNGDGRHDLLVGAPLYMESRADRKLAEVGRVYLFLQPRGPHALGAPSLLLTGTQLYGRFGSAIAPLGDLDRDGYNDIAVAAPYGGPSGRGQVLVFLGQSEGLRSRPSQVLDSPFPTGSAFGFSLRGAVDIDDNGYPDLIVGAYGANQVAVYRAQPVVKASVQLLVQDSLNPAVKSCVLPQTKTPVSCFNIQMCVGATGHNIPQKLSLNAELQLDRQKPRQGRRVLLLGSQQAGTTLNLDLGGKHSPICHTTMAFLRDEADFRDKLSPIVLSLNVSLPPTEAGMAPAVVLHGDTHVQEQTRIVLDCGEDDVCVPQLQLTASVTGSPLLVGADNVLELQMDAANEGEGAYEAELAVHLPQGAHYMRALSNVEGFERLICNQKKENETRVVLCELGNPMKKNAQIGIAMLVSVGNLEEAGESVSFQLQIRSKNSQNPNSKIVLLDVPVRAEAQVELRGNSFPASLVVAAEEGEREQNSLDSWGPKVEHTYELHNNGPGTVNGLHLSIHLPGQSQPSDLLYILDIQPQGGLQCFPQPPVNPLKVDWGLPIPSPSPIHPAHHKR
Sequence of Integrin alpha-IIb/beta-3 (P08514 891-1039 limits assumed): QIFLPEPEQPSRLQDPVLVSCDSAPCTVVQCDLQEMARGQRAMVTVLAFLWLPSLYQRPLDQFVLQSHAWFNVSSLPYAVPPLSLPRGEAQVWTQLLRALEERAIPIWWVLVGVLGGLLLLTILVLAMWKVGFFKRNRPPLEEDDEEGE

IC50 [1] [µM] | IC50 [2] [µM] | IC50 [3] [µM] | inhibition [4] | inhibition [5] | IC50 [6] [µM] | Ratio IC50 [7] | SMILES
12 | 130 | 38 | – | – | – | – | N=C(N)NCCC[C@H](N)C(=O)NCC(=O)N[C@@H](CC(=O)O)C(=O)O
– | – | – | Dose-dependent effect | Dose-dependent effect | – | – | NC(N)=NCCC[C@H](N)C(=O)NCC(=O)N[C@@H](CC(=O)O)C(=O)O
4.1 | 725 | 92 | Dose-dependent effect | Dose-dependent effect | 1550 | 177 | N=C(N)NCCC[C@H](N)C(=O)NCC(=O)N[C@@H](CC(=O)O)C(=O)N[C@@H](Cc1ccccc1)C(=O)O (H-RGDF-OH)
